Experimental data taken from patent publication US20260334439A1, “BCAT2 INHIBITORS” (Agios Pharmaceuticals, Inc., priority 2023, published 2026).
pIC50: −log10 of the molar value.

How the values were obtained:
[1] = target: T1, BCAT2 (Homo sapiens, UniProt O15382); assay: BCAT2 in vitro enzyme inhibition assay (hBCAT2, glutamate dehydrogenase/diaphorase/resazurin coupled fluorescence read); assay type: biochemical; details: hBCAT2, 1 h preincubation at 25° C., one hour reaction; average where tested multiple times
T1 sequence (O15382 28-392): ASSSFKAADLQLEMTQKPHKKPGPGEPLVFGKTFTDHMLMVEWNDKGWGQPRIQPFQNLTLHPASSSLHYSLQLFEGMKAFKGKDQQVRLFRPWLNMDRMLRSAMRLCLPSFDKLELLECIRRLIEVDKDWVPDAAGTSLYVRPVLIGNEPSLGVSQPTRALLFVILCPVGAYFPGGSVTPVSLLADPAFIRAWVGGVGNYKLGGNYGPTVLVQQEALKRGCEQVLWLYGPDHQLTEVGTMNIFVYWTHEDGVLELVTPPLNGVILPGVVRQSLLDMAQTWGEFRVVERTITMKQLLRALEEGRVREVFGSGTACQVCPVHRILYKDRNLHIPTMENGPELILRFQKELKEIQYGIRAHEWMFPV
How it was run: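 hBCAT2 (0.33 μg/mL in mix) preincubated 1 h at 25 °C with compound (top 100 μM, 3-fold, 10 points) in Tris pH 8.0/NaCl/BSA; substrate mix added (L-leucine, α-ketoglutarate, GDH, NAD, diaphorase, resazurin), quenched with SDS after 1 h, fluorescence Ex 540/Em 590; duplicates, repeat tests averaged.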

[2] = target: T1, BCAT2; assay: BCAT2 cell inhibition using engineered A549 cells (MUT KO, BCAT1 KO; 13C6-KMV formation by LC-MS/MS); assay type: cell-based; parameters: expressed endogenous BCAT2; endogenous in cells; host or cells: A549 cells, MUT knockout and BCAT1 knockout
How it was run: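 Medium 13C6-KMV formation is read by LC-MS/MS after PFBHA derivatization with d8-KMV internal standard. Cells are CRISPR MUT/BCAT1 double-knockout A549 expressing endogenous BCAT2, given compound 15 min before labelled isoleucine (800 uM, added 1:1) for 24 h. CTG viability run in parallel; replicates averaged.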

Row | Structure (SMILES) | pIC50 [1] | pIC50 [2] | pIC50 ([2]; read-out: BCAT2 Cell Inhibition (IC50), engineered A549 cells, 24 hours, 13C6-KMV in media, average where tested multiple times)
1 | O=C(N[C@H]1CCC[C@@H](n2c(-c3ccccc3F)nc3cnc(-c4nc[nH]n4)cc32)C1)c1cc(Cl)ccc1OC(CO)CO [Example 90, 5-chloro-2-((1,3-dihydroxypropan-2-yl)oxy)-N-((1S,3R)-3-(2-(2-fluorophenyl)-6-(1H-1,2,4-triazol-3-yl)-1H-imidazo[4,5-c]pyridin-1-yl)cyclohexyl)benzamide] | > 7.00 | 6.30 to 7.00 | –
2 | O=C(N[C@H]1CCC[C@@H](n2c(-c3ncccc3F)nc3cnc(-c4nc[nH]n4)cc32)C1)c1cc(F)ccc1F [Example 80, 2,5-difluoro-N-((1S,3R)-3-(2-(3-fluoropyridin-2-yl)-6-(1H-1,2,4-triazol-3-yl)-1H-imidazo[4,5-c]pyridin-1-yl)cyclohexyl)benzamide] | > 7.00 | 6.30 to 7.00 | –
3 | O=C1c2cc(F)ccc2NCN1[C@H]1CCC[C@@H](n2c(-c3ccccc3F)nc3cnc(-c4nc[nH]n4)cc32)C1 [Example 208, 6-fluoro-3-((1S,3R)-3-(2-(2-fluorophenyl)-6-(1H-1,2,4-triazol-3-yl)-1H-imidazo[4,5-c]pyridin-1-yl)cyclohexyl)-2,3-dihydroquinazolin-4(1H)-one] | > 7.00 | > 7.00 | –
4 | O=C(N[C@H]1CCC[C@@H](n2c(-c3ccccc3OC(F)F)nc3cnc(-c4nc[nH]n4)cc32)C1)c1cc(Cl)ccc1OCCO [compound 73] | > 7.00 | > 7.00 | –
5 | O=c1c2cc(F)ccc2ncn1[C@H]1CCC[C@@H](n2c(-c3ccccc3F)nc3cnc(-c4nc[nH]n4)cc32)C1 [Example 209, 6-fluoro-3-((1S,3R)-3-(2-(2-fluorophenyl)-6-(1H-1,2,4-triazol-3-yl)-1H-imidazo[4,5-c]pyridin-1-yl)cyclohexyl)quinazolin-4(3H)-one] | > 7.00 | > 7.00 | –
6 | O=C1c2cc(F)ccc2CN1[C@H]1CCC[C@@H](n2c(-c3ccccc3OCCO)nc3cnc(-c4nc[nH]n4)cc32)C1 [Example 173, 6-fluoro-2-((1S,3R)-3-(2-(2-(2-hydroxyethoxy)phenyl)-6-(1H-1,2,4-triazol-3-yl)-1H-imidazo[4,5-c]pyridin-1-yl)cyclohexyl)isoindolin-1-one] | > 7.00 | > 7.00 | –
7 | CC(=O)N1C[C@H](NC(=O)c2cc(F)ccn2)C[C@H](n2c(-c3ccccc3F)nc3cnc(-c4nc(C)co4)cc32)C1 [Example 167, N-((3R,5S)-1-acetyl-5-(2-(2-fluorophenyl)-6-(4-methyloxazol-2-yl)-1H-imidazo[4,5-c]pyridin-1-yl)piperidin-3-yl)-4-fluoropicolinamide] | > 7.00 | > 7.00 | –
8 | CN1C[C@H](NC(=O)c2cc(F)ccn2)C[C@H](n2c(-c3ccccc3F)nc3cnc(-c4nc[nH]n4)cc32)C1 [Example 134, 4-fluoro-N-((3R,5S)-5-(2-(2-fluorophenyl)-6-(1H-1,2,4-triazol-3-yl)-1H-imidazo[4,5-c]pyridin-1-yl)-1-methylpiperidin-3-yl)picolinamide] | > 7.00 | 6.30 to 7.00 | –
9 | CCN(C)Cc1nc2cnc(-c3nc[nH]n3)cc2n1[C@@H]1CCC[C@H](NC(=O)c2cc(Cl)ccn2)C1 [Example 24, 4-chloro-N-((1S,3R)-3-(2-((ethyl(methyl)amino)methyl)-6-(1H-1,2,4-triazol-3-yl)-1H-imidazo[4,5-c]pyridin-1-yl)cyclohexyl)picolinamide] | 6.00 to 6.30 | – | < 6.00
10 | CC(=O)N1CC(N2Cc3ccc(F)cc3C2=O)CC(n2c(-c3c(F)cccc3F)nc3cnc(-c4nc[nH]n4)cc32)C1 (stereo not shown) [Example 201, 2-(1-acetyl-5-(2-(2,6-difluorophenyl)-6-(1H-1,2,4-triazol-3-yl)-1H-imidazo[4,5-c]pyridin-1-yl)piperidin-3-yl)-6-fluoroisoindolin-1-one] | > 7.00 | > 7.00 | –
11 | CN1C[C@H](NC(=O)c2cc(F)ccn2)C[C@H](n2c(-c3ccccc3OC(F)F)nc3cnc(-c4nc[nH]n4)cc32)C1 [compound 139] | > 7.00 | > 7.00 | –
12 | N#Cc1ccc(F)c(C(=O)N[C@H]2CCC[C@@H](n3c(-c4ccccc4F)nc4cnc(-c5nc[nH]n5)cc43)C2)c1 [Example 77, 5-cyano-2-fluoro-N-((1S,3R)-3-(2-(2-fluorophenyl)-6-(1H-1,2,4-triazol-3-yl)-1H-imidazo[4,5-c]pyridin-1-yl)cyclohexyl)benzamide] | > 7.00 | 6.30 to 7.00 | –
13 | CN1C[C@H](NC(=O)c2cc(Cl)ccn2)C[C@H](n2c(-c3ccccc3F)nc3cnc(-c4nc[nH]n4)cc32)C1 [Example 130, 4-chloro-N-((3R,5S)-5-(2-(2-fluorophenyl)-6-(1H-1,2,4-triazol-3-yl)-1H-imidazo[4,5-c]pyridin-1-yl)-1-methylpiperidin-3-yl)picolinamide] | > 7.00 | > 7.00 | –

More lines, now with the values ahead:

Row | pIC50 [1] | pIC50 [2] | pIC50 ([2]; read-out: BCAT2 Cell Inhibition (IC50), engineered A549 cells, 24 hours, 13C6-KMV in media, average where tested multiple times) | Structure (SMILES)
14 | > 7.00 | 6.00 to 6.30 | – | CO[C@H]1C[C@H](NC(=O)c2cc(Cl)ccn2)C[C@H](n2c(CC(C)C)nc3cnc(-c4ncccn4)cc32)C1 [Example 117, 4-chloro-N-((1R,3S,5S)-3-(2-isobutyl-6-(pyrimidin-2-yl)-1H-imidazo[4,5-c]pyridin-1-yl)-5-methoxycyclohexyl)picolinamide]
15 | > 7.00 | > 7.00 | – | CC(C)(O)COc1ccc(Cl)cc1C(=O)N[C@H]1CCC[C@@H](n2c(-c3ccccc3F)nc3cnc(-c4nc[nH]n4)cc32)C1 [Example 39, 5-chloro-N-((1S,3R)-3-(2-(2-fluorophenyl)-6-(1H-1,2,4-triazol-3-yl)-1H-imidazo[4,5-c]pyridin-1-yl)cyclohexyl)-2-(2-hydroxy-2-methylpropoxy)benzamide]
16 | > 7.00 | > 7.00 | – | CC(=O)N1C[C@H](N2Cc3ccc(F)cc3C2=O)C[C@H](n2c(-c3ccccc3F)nc3cnc(-n4nccn4)cc32)C1 [Example 200, 2-((3R,5S)-1-acetyl-5-(2-(2-fluorophenyl)-6-(2H-1,2,3-triazol-2-yl)-1H-imidazo[4,5-c]pyridin-1-yl)piperidin-3-yl)-6-fluoroisoindolin-1-one]
17 | > 7.00 | > 7.00 | – | O=C1c2cc(Cl)ccc2OCN1[C@H]1CCC[C@@H](n2c(-c3ccccc3F)nc3cnc(-n4nccn4)cc32)[C@@H]1O [Example 214, 6-chloro-3-((1S,2S,3R)-3-(2-(2-fluorophenyl)-6-(2H-1,2,3-triazol-2-yl)-1H-imidazo[4,5-c]pyridin-1-yl)-2-hydroxycyclohexyl)-2,3-dihydro-4H-benzo[e][1,3]oxazin-4-one]
18 | > 7.00 | 6.30 to 7.00 | – | O=C(N[C@H]1CCC[C@@H](n2c(-c3ccccc3F)nc3cnc(-c4nc[nH]n4)cc32)C1)c1c(F)cccc1F [Example 74, 2,6-difluoro-N-((1S,3R)-3-(2-(2-fluorophenyl)-6-(1H-1,2,4-triazol-3-yl)-1H-imidazo[4,5-c]pyridin-1-yl)cyclohexyl)benzamide]
19 | > 7.00 | > 7.00 | – | O=C(N[C@H]1CCC[C@@H](n2c(-c3ccccc3F)nc3cnc(-c4nc[nH]n4)cc32)C1)c1cc(Cl)ccc1OC1CC1 [Example 29, 5-chloro-2-cyclopropoxy-N-((1S,3R)-3-(2-(2-fluorophenyl)-6-(1H-1,2,4-triazol-3-yl)-1H-imidazo[4,5-c]pyridin-1-yl)cyclohexyl)benzamide]
20 | > 7.00 | > 7.00 | – | O=C1c2ccc(F)cc2C(=O)N1[C@H]1CCC[C@@H](n2c(-c3ccccc3F)nc3cnc(-c4nc[nH]n4)cc32)C1 [Example 182, 5-fluoro-2-((1S,3R)-3-(2-(2-fluorophenyl)-6-(1H-1,2,4-triazol-3-yl)-1H-imidazo[4,5-c]pyridin-1-yl)cyclohexyl)isoindoline-1,3-dione]
21 | > 7.00 | 6.30 to 7.00 | – | O=C(N[C@H]1CCC[C@@H](n2c(-c3ccccc3OCCO)nc3cnc(-c4nc[nH]n4)cc32)C1)c1cc(F)ccc1F [Example 85, 2,5-difluoro-N-((1S,3R)-3-(2-(2-(2-hydroxyethoxy)phenyl)-6-(1H-1,2,4-triazol-3-yl)-1H-imidazo[4,5-c]pyridin-1-yl)cyclohexyl)benzamide]
22 | > 7.00 | > 7.00 | – | O=C1c2cc(Cl)ccc2CN1[C@H]1CCC[C@@H](n2c(-c3ccccc3F)nc3cnc(-c4nc[nH]n4)cc32)[C@@H]1O [Example 183, 6-chloro-2-((1S,2S,3R)-3-(2-(2-fluorophenyl)-6-(1H-1,2,4-triazol-3-yl)-1H-imidazo[4,5-c]pyridin-1-yl)-2-hydroxycyclohexyl)isoindolin-1-one]
23 | > 7.00 | > 7.00 | – | O=C(N[C@H]1CCC[C@@H](n2c(-c3ccccc3F)nc3cnc(-c4nc[nH]n4)cc32)C1)c1ccccc1F [Example 76, 2-fluoro-N-((1S,3R)-3-(2-(2-fluorophenyl)-6-(1H-1,2,4-triazol-3-yl)-1H-imidazo[4,5-c]pyridin-1-yl)cyclohexyl)benzamide]
